Reference: patent publication US7928107B2, “Quinazolines useful as modulators of ion channels” (Vertex Pharmaceuticals Incorporated, priority 2004, dated 2011)

Target: NaV 1.8 channel (Homo sapiens, UniProt Q9Y5Y9)
Assay: Activity against NaV 1.8 channel (optical membrane potential assay)
Format: cell-based
Summary of the method: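 Cells expressing the NaV of interest loaded with CC2-DMPE (30 min, room temperature) then DiSBAC2(3) with ABSCl and veratridine; compound incubated 20–30 min. Depolarization triggered by sodium add-back and read on VIPR as 460/580 nm FRET ratio (Rf/Ri), normalized to tetracaine and untreated controls.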

Sequence of NaV 1.8 channel (Q9Y5Y9 whole entry): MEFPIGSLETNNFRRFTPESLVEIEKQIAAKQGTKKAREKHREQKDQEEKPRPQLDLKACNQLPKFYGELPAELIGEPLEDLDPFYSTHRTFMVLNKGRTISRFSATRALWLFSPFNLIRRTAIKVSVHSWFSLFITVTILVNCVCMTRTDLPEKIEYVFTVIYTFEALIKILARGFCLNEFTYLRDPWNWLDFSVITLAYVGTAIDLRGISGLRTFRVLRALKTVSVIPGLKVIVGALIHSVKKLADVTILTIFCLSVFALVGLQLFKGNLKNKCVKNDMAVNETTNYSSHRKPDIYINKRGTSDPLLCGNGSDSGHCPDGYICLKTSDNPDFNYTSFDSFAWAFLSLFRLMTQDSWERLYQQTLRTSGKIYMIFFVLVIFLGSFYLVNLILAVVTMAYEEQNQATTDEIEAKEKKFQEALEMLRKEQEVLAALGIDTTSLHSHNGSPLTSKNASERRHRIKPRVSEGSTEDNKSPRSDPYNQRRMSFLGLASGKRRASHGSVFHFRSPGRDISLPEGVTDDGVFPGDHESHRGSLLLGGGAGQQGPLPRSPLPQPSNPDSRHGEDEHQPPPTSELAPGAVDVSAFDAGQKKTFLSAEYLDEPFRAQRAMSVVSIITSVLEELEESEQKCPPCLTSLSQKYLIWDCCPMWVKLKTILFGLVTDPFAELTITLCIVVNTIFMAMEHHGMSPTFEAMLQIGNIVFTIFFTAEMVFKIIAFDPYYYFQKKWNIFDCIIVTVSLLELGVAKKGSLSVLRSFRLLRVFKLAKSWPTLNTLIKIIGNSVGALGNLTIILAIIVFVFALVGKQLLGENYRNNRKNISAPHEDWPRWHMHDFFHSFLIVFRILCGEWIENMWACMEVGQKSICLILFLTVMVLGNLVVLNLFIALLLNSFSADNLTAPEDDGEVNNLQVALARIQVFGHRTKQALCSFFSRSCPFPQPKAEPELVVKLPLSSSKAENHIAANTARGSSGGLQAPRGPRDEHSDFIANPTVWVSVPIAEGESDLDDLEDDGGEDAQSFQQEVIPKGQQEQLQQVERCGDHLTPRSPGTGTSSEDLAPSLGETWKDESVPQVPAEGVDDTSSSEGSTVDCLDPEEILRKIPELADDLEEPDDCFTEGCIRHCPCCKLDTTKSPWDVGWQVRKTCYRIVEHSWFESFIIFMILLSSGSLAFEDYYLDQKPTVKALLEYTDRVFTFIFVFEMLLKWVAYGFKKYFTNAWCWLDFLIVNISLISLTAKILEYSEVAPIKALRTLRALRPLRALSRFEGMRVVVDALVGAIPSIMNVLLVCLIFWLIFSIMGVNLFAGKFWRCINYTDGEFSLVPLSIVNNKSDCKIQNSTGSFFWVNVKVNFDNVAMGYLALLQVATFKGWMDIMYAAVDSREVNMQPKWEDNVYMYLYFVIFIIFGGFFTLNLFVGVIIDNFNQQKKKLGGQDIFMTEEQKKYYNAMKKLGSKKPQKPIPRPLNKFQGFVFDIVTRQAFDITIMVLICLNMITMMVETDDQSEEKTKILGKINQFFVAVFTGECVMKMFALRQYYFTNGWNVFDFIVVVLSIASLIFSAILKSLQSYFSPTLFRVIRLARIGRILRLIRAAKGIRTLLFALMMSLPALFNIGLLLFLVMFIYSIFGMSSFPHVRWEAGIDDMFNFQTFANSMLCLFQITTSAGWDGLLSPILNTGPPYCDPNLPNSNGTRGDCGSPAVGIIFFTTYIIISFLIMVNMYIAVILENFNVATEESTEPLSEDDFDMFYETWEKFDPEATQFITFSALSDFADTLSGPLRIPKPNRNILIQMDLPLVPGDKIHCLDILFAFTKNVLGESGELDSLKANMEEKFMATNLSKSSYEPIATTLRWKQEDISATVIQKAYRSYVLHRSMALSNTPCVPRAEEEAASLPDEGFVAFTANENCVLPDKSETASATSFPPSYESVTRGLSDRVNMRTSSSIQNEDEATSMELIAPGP

Row | IC50 | SMILES
1 | > 10 µM | Cc1ccc2c(N3CCN(C(=O)C(C)(O)C(F)(F)F)CC3)nc(-c3ccccc3O)nc2c1 (centres unmarked) [Example 110, 2-(Trifluoromethyl)-2-hydroxy-1-(4-(2-(2-hydroxyphenyl)-7-methylquinazolin-4-yl)piperazin-1-yl)propan-1-one]
2 | 2 to 10 µM | Cc1ccc2c(N3CCC(NC(=O)OCC4CCOC4)CC3)nc(-c3ccccc3O)nc2c1 (centres unmarked) [Example 275]
3 | < 2 µM | Cc1ccc2c(N3CC[C@@H](NC(=O)OCc4ccccc4)C3)nc(-c3ccccc3O)nc2c1 [Example 309, (R)-{1-[2-(2-Hydroxy-phenyl)-7-methyl-quinazolin-4-yl]-pyrrolidin-3-yl}-carbamic acid benzyl ester]
4 | 2 to 10 µM | Cc1ccc2c(N3CCCC(C(=O)NCc4cccnc4)C3)nc(-c3ccccc3O)nc2c1 (centres unmarked) [Example 201, 1-(2-(2-Hydroxyphenyl)-7-methylquinazolin-4-yl)-N-((pyridin-3-yl)methyl)piperidine-3-carboxamide]
5 | 2 to 10 µM | Cc1ccc2c(N3CC[C@@H](NC(=O)O[C@H]4CCOC4)C3)nc(-c3ccccc3O)nc2c1 [Example 301, (S)-Tetrahydrofuran-3-yl (R)-1-(2-(2-hydroxyphenyl)-7-methylquinazolin-4-yl)pyrrolidin-3-ylcarbamate]
6 | < 2 µM | Cc1ccc2c(N3CCN(C(=O)C(=O)C(C)C)CC3)nc(-c3ccccc3O)nc2c1 [Example 186]
7 | > 10 µM | Cc1ccc2c(N3CCC(NC(=O)OCc4cccc5c4OCO5)CC3)nc(-c3ccccc3O)nc2c1 [Example 229, (Benzo[d][1,3]dioxol-7-yl)methyl 1-(2-(2-hydroxyphenyl)-7-methylquinazolin-4-yl)piperidin-4-ylcarbamate]
8 | 2 to 10 µM | Cc1ccc2c(N3CCC(NC(=O)[C@H](O)CC(C)(C)C)CC3)nc(-c3c(O)cccc3F)nc2c1 [Example 249, (2R)—N-(1-(2-(2-Fluoro-6-hydroxyphenyl)-7-methylquinazolin-4-yl)piperidin-4-yl)-2-hydroxy-4,4-dimethylpentanamide]
9 | 2 to 10 µM | Cc1ccc2c(N3CCN(C(=O)[C@@H](O)CC(C)C)CC3)nc(-c3ccccc3O)nc2c1 [Example 144, (S)-2-Hydroxy-1-(4-(2-(2-hydroxyphenyl)-7-methylquinazolin-4-yl)piperazin-1-yl)-4-methylpentan-1-one]
10 | < 2 µM | Cc1ccc2c(N3CC[C@@H](CNC(=O)OCC(C)(C)C)C3)nc(-c3ccccc3O)nc2c1 [Example 369, Neopentyl ((S)-1-(2-(2-hydroxyphenyl)-7-methylquinazolin-4-yl)pyrrolidin-3-yl)methylcarbamate]
11 | 2 to 10 µM | Cc1ccc2c(N3CCN(C(=O)OCC4CCOC4)CC3)nc(-c3ccccc3O)nc2c1 (centres unmarked) [Example 184]
12 | > 10 µM | CCCCC(O)C(=O)NC1CCN(c2nc(-c3ccccc3O)nc3ccccc23)CC1 (centres unmarked) [Example 238, 2-Hydroxy-N-(1-(2-(2-hydroxyphenyl)quinazolin-4-yl)piperidin-4-yl)hexanamide]
13 | > 10 µM | Cc1ccc2c(N3CCC(CNC(=O)OCC(C)C)CC3)nc(-c3ccccc3O)nc2c1 [Example 278]
14 | > 10 µM | Cc1ccc2c(N3CC[C@@H](NC(=O)C4CCC(=O)N4)C3)nc(-c3ccccc3O)nc2c1 (stereo partly drawn) [Example 315, (R)-5-Oxo-pyrrolidine-2-carboxylic acid {1-[2-(2-hydroxy-phenyl)-7-methyl-quinazolin-4-yl]-pyrrolidin-3-yl}-amide]
15 | 2 to 10 µM | CCC(C)(O)C(=O)NC1CCN(c2nc(-c3ccccc3O)nc3ccccc23)CC1 (centres unmarked) [Example 242, 2-Hydroxy-N-(1-(2-(2-hydroxyphenyl)quinazolin-4-yl)piperidin-4-yl)-2-methylbutanamide]
16 | < 2 µM | Cc1ccc2c(N3CCC[C@@H](NC(=O)O[C@H]4CCOC4)C3)nc(-c3ccccc3O)nc2c1 [Example 208, (S)-Tetrahydrofuran-3-yl (R)-1-(2-(2-hydroxyphenyl)-7-methylquinazolin-4-yl)piperidin-3-ylcarbamate]
17 | > 10 µM | CC(C)(C)C[C@@H](O)C(=O)N1CCN(c2nc(-c3ccccc3O)nc3ccc(F)cc23)CC1 [Example 111, (R)-1-(4-(6-Fluoro-2-(2-hydroxyphenyl)quinazolin-4-yl)piperazin-1-yl)-2-hydroxy-4,4-dimethylpentan-1-one]
18 | > 10 µM | CC(C)C[C@@H](O)C(=O)N1CCN(c2nc(-c3ccccc3O)nc3cc(C(=O)O)ccc23)CC1 [Example 123, 4-[4-((R)-2-Hydroxy-4-methyl-pentanoyl)-piperazin-1-yl]-2-(2-hydroxy-phenyl)-quinazoline-7-carboxylic acid]
19 | 2 to 10 µM | O=C(CC1CCOCC1)N1CCN(c2nc(-c3ccccc3O)nc3ccc(F)cc23)CC1 [Example 128, 1-(4-(6-Fluoro-2-(2-hydroxyphenyl)quinazolin-4-yl)piperazin-1-yl)-2-(tetrahydro-2H-pyran-4-yl)ethanone]

Row | IC50 | SMILES
20 | > 10 µM | CC(C)(C)COC(=O)NC[C@@H]1CCN(c2nc(-c3ccccc3O)nc3ccc(F)cc23)C1 [Example 375, Neopentyl ((S)-1-(6-fluoro-2-(2-hydroxyphenyl)quinazolin-4-yl)pyrrolidin-3-yl)methylcarbamate]
21 | > 10 µM | Cc1ccc2c(N3CC[C@@H](NC(=O)c4ccncc4)C3)nc(-c3c(O)cccc3F)nc2c1 [Example 350, N—((R)-1-(2-(2-Fluoro-6-hydroxyphenyl)-7-methylquinazolin-4-yl)pyrrolidin-3-yl)isonicotinamide]
22 | > 10 µM | Cc1ccc2c(N3CCC(NC(=O)CCc4ccccn4)CC3)nc(-c3ccccc3O)nc2c1 [Example 223, N-(1-(2-(2-Hydroxyphenyl)-7-methylquinazolin-4-yl)piperidin-4-yl)-3-(pyridin-2-yl)propanamide]
23 | < 2 µM | CC(C)(C)C[C@@H](O)C(=O)N1CCN(c2nc(-c3ccccc3O)nc3ccccc23)CC1 [Example 191]
24 | < 2 µM | Cc1ccc2c(N3CC[C@@H](CNC(=O)OCC(C)C)C3)nc(-c3c(O)cccc3F)nc2c1 [Example 372, Isobutyl ((S)-1-(2-(2-fluoro-6-hydroxyphenyl)-7-methylquinazolin-4-yl)pyrrolidin-3-yl)methylcarbamate]
25 | > 10 µM | Cc1ccc2c(N3CCC[C@@H](CNC(=O)OC(C)C)C3)nc(-c3ccccc3O)nc2c1 [Example 255, Isopropyl ((S)-1-(2-(2-hydroxyphenyl)-7-methylquinazolin-4-yl)piperidin-3-yl)methylcarbamate]
26 | > 10 µM | O=C(NC1CCN(c2nc(-c3ccccc3O)nc3ccc(F)cc23)CC1)[C@H]1CCCO1 [Example 224, (2R)—N-(1-(6-Fluoro-2-(2-hydroxyphenyl)quinazolin-4-yl)piperidin-4-yl)-tetrahydrofuran-2-carboxamide]
27 | 2 to 10 µM | Cc1ccc2c(N3CCC(NC(=O)O[C@@H]4CO[C@H]5OCC[C@H]54)CC3)nc(-c3ccccc3O)nc2c1 [Example 280]
28 | > 10 µM | O=C(NC1CCN(c2nc(-c3c(O)cccc3Cl)nc3ccccc23)CC1)[C@H]1CCCO1 [Example 213, (2R)—N—(1-(2-(2-Chloro-6-hydroxyphenyl)quinazolin-4-yl)piperidin-4-yl)-tetrahydrofuran-2-carboxamide]
29 | 2 to 10 µM | CCOC(=O)NCC1CCCN(c2nc(-c3ccccc3O)nc3cc(C)ccc23)C1 (centres unmarked) [Example 251, Ethyl (1-(2-(2-hydroxyphenyl)-7-methylquinazolin-4-yl)piperidin-3-yl)methylcarbamate]
30 | > 10 µM | Cc1ccc2c(N3CCN(C(=O)[C@H](O)CC(N)=O)CC3)nc(-c3ccccc3O)nc2c1 [Example 154, (R)-3-Hydroxy-4-(4-(2-(2-hydroxyphenyl)-7-methylquinazolin-4-yl)piperazin-1-yl)-4-oxobutanamide]
31 | 2 to 10 µM | Cc1ccc2c(N3CCN(C(=O)O[C@H]4CCOC4)CC3)nc(-c3c(O)cccc3F)nc2c1 [Example 163, (S)-Tetrahydrofuran-3-yl 4-(2-(2-fluoro-6-hydroxyphenyl)-7-methylquinazolin-4-yl)piperazine-1-carboxylate]
32 | > 10 µM | CC[C@@H](O)C(=O)NC1CCN(c2nc(-c3ccccc3O)nc3ccccc23)CC1 [Example 236, (2R)-2-Hydroxy-N-(1-(2-(2-hydroxyphenyl)quinazolin-4-yl)piperidin-4-yl)butanamide]
33 | > 10 µM | O=C(NC[C@@H]1CCN(c2nc(-c3ccccc3O)nc3ccc(F)cc23)C1)C1CC1 [Example 357, N—(((S)-1-(6-Fluoro-2-(2-hydroxyphenyl)quinazolin-4-yl)pyrrolidin-3-yl)methyl)cyclopropanecarboxamide]
34 | > 10 µM | Cc1ccc2c(N3CCN(C(=O)[C@H](O)CC(=O)O)CC3)nc(-c3ccccc3O)nc2c1 [Example 145, (R)-3-Hydroxy-4-(4-(2-(2-hydroxyphenyl)-7-methylquinazolin-4-yl)piperazin-1-yl)-4-oxobutanoic acid]
35 | > 10 µM | Cc1ccc2c(N3CCN(C(=O)[C@H](O)CC(C)C)CC3)nc(-c3cc(F)ccc3O)nc2c1 [Example 136, (R)-1-(4-(2-(5-Fluoro-2-hydroxyphenyl)-7-methylquinazolin-4-yl)piperazin-1-yl)-2-hydroxy-4-methylpentan-1-one]
36 | > 10 µM | Cc1ccc2c(N3CC(C(=O)NCc4ccncc4)C3)nc(-c3ccccc3O)nc2c1 [Example 401, 1-(2-(2-Hydroxyphenyl)-7-methylquinazolin-4-yl)-N-((pyridin-4-yl)methyl)azetidine-3-carboxamide]
37 | 2 to 10 µM | CCCCC(O)C(=O)N1CCN(c2nc(-c3ccccc3O)nc3ccccc23)CC1 (centres unmarked) [Example 159, 2-Hydroxy-1-(4-(2-(2-hydroxyphenyl)quinazolin-4-yl)piperazin-1-yl)hexan-1-one]
38 | 2 to 10 µM | O=C(O[C@@H]1CCOC1)N1CCN(c2nc(-c3ccccc3O)nc3ccc(F)cc23)CC1 [Example 148, (R)-Tetrahydrofuran-3-yl 4-(6-fluoro-2-(2-hydroxyphenyl)quinazolin-4-yl)piperazine-1-carboxylate]
